What was measured:
Assay type in all cases: cell-based
[1] = test system: Various cell lines; assay: Pretreatment model (7+3 or 7+7) combination proliferation assay, cellular ATP luminescence, Loewe synergy; conditions: several cell lines
Description: Pretreatment model: Various cell lines were seeded in flasks at densities that ensured log-linear growth rates for the duration of the assay. […] Cultures were incubated in a humidified atmosphere of 5% CO2 at 37° C. for 4 days. On Day 4 cells were spun down, resuspended in fresh medium, counted and diluted to the original cell density in new flasks. […] Cells were then spun down on Day 7, re-suspended in fresh medium and plated to assay-ready 384 well plates with an automated multichannel dispenser. […] Compounds listed in Table 7 were dispensed with a HP-D300 nanoliter dispenser (Tecan, Mannedorf, Switzerland), with each plate containing 8 combination partners. Plates were then incubated for an additional three or seven days as noted in FIG. 1D to follow a 7+3 or 7+7 model (cell lines with slow growth characteristics were tested in a 7+7 model). Quantification of proliferation through measurement of cellular adenosine triphosphate (ATP) was performed via a luminescent cell viability assay and read on a plate reader with luminescence module. […]
Fa was calculated with the formula:
Fa=1−(Luminescence of test compound/Luminesence of untreated control)

[2] = test system: Human CD34+ progenitor cells; assay: Human CD34+ progenitors assay, HbF (Hbγ) quantitation by mass spectrometry; conditions: compound 205 with Hydroxyurea, matrix format, CD34+ cells from a pool of 5 healthy donors; Loewe excess in Chalice
Text: (§1) An in-vitro system to test the ability of compound to induce fetal hemoglobin expression was developed. This system used Human CD34+ progenitor cells freshly isolated from healthy donors blood collections. Peripheral blood mononuclear cells (PBMCs) were isolated from whole blood by density gradient centrifugation using SepMatem-50 and Lymphoprep™ from Stem Cell Technologies. CD34^+ hematopoietic progenitor cells (HSPCs) were isolated from PBMCs by magnetic separation using Stem Cells Technologies CD34+ positive selection/isolation kit (Stem Cell Technologies, #18056). CD34 cells were cultured using a 2-phase 14 day culture system. During phase 1 (day 0 to day 7) cells were expanded. Expansion was followed by phase 2 (day 7 to day 14) where cells were differentiated toward the erythroid lineage. Compounds were added on day 1 and day 7 as 1000× stock after being diluted in dimethyl sulfoxide (DMSO) in a 3-fold series. […] At day 14 cells were harvested for Fluorescent Activated Cell Sorting (FACS) analysis and for HbF quantitation by Mass spectrometry. […] Data was analyzed using FlowJo software. % HbF^+ cells and ratios H3/H3K9me2 intensities were calculated for CD71^+/CD235a^+ gated populations.
Hydroxyurea was also evaluated as single agent and in combination with the EHMT1/2 inhibitor compound 205 in a matrix format using CD34^+ cells isolated from a pool of 5 healthy donors. […]

[3] = test system: Human CD34+ progenitor cells; assay: Cell viability in the human CD34+ progenitors HbF induction assay
Text: as §1, with “expanded.” for “expanded. Expansion was followed by phase 2 (day 7 to day 14) where cells were differentiated toward the erythroid lineage. Compounds were added on day 1 and day 7 as 1000× stock after being diluted in dimethyl sulfoxide (DMSO) in a 3-fold series.”
A list of pharmacological agents was evaluated for their potential to induce fetal Hemoglobin (HbF) in order to identify combination partners for our EHMT1/2 inhibitors. HbF can be induced by toxicity; therefore, the potential of the agents to induce HbF were evaluated in the context of cell viability. […] The EHMT1/2 inhibitor Compound 205 was evaluated in combination with a fixed dose of 10 μM Hydroxyurea and 0.1 μM Pomalidomide. […]

CNc1cc(C)nc(Nc2ccc(OC)c(OCCCN3CCCC3)c2)n1 [Compound 205]
combination effect on proliferation (Loewe) ([1]; Compound 205 and ATRA (FIG. 1B)): synergy
combination effect on proliferation (Loewe) ([1]; Compound 205 and Venetoclax (FIG. 1C)): synergy
combination effect on Hbγ protein expression (MS quantification) [2]: synergistically
cell viability ([3]; 0.016 μM compound 205 in combination with 0.1 μM Pomalidomide): > 90%
cell viability ([3]; 0.016 μM compound 205 in combination with 10 μM Hydroxyurea): > 90%
